Laboratory results as given in US4238472A, “Radioimmunoassay for chlorinated dibenzo-p-dioxins” (priority 1978, dated 1980).

What was measured:
antiserum F-12 = experiment: Specificity / cross reactivity of the radioimmunoassay, antiserum F-12; format: binding, rabbit; conditions: for Percentage Reactivity (inhibition of 125I binding relative to inhibition by 5 ng of 2,3,7,8-TCDD): "Cutscum"
Description: (§1) Since TCDD itself has no chemically reactive functional groups, a derivative was synthesized that retained most of the structural features of TCDD but with the addition of a reactive site. This derivative was coupled to an immunogenic protein carrier, such as bovine serum albumin, rabbit serum albumin, etc., so that animals would respond to it by producing an antiserum containing antibodies. A second compound was synthesized, still structurally similar to TCDD so that it would bind to the antibodies, but capable of being labeled with ^125 I for detectability at the picogram level. An amount of antiserum capable of binding about 20 pg of ^125 I-labeled dioxin derivative (hapten) is preincubated with the detergent emulsion of the sample extract (possibly containing TCDD). Then the mixture is incubated with the ^125 I-labeled derivative long enough for equilibrium binding to occur and form the hapten-antibody complex. A second antibody, namely, goat antibodies against rabbit gamma-globulin (i.e., goat anti-rabbit γ-globulin) are then added to precipitate the antibody ^125 I-labeled dioxin complex, and the amount of ^125 I in the precipitate is determined. The extent to which preincubation with the test material inhibits or decreases the amount of ^125 I precipitated relative to the amount precipitated in the absence of test material is a measure of the amount of chlorodibenzodioxin in the test sample.
(§2) Radioimmunoassay of small molecules requires some means of separating free hapten from antibody-bound hapten. The procedure used in the present invention, chosen because of its compatibility with detergent-solubilized hapten, involved precipitating the antibody-hapten complex with a second antibody, namely, goat antibodies against rabbit gamma-globulin. In this assay chlorodibenzodioxin from the environmental sample completes with the ^125 I-labeled hapten for binding to the antibody. Thus, the decrease in precipitation of radioactivity is a measure of the amount of (unlabeled) hapten in the test sample.
(§3) The assay buffer (hereinafter referred to as "PBS") contained, per liter, 20 mmol of potassium phosphate, 140 mmol of NaCl, and 200 mg of sodium azide. The pH was adjusted to 7.3 with NaOH. Antiserum was diluted with PBS also containing 0.1% bovine gamma globulin and 0.02% rabbit gamma globulin (w/v). Each assay tube from procedure G above received 0.2 ml of PBS, after which the tubes were held in the sonicator for 40 minutes and then cooled to room temperature. Appropriately diluted antiserum or, as control, antiserum diluant was added (0.2 ml) and, after vortex-mixing, the tubes were incubated for 40 minutes at 37°. 14000 disintegrations per minute (hereafter referred to as "DPM") or 7000 counts per minute (hereinafter referred to as "CPM", which equals DPM×counting efficiency) of [^125 I]-iodovaleramide derivative of trichlorodibenzo-p-dioxin in PBS containing 1% "Cutscum" were then added to each tube (approximately 10 μl), vortex mixed, and the tubes incubated for 1 hour at 37° followed by an additional 65 hours of incubation at 4°. Each tube next received 1.24 units of goat anti-rabbit gamma globulin in 0.2 ml of PBS containing 0.05 mM ethylenediamine tetracetic acid (hereinafter referred to as "EDTA"), was vortex mixed, and incubated for 5 hours at 4°. The tubes were centrifuged at 500×g for 20 minutes at 4°. The supernates were poured off and the tubes allowed to drain into Whatman #3 MM paper for 10 minutes. The precipitate or pellets obtained were then radioassayed for ^125 I, with 10 minute count cycles.
(§4) Standard curves were prepared using sequential two-fold dilutions of TCDD or other test compounds in benzene and evaporating the solvent as described above. Both control (blank) and TCDD-spiked tissues were extracted and processed as described above to determine general interference and recoveries. All samples were run in triplicate. […]

antiserum GC-5 = experiment: Cross reactivity in chlorinated DBD radioimmunoassay, antiserum GC-5; format: binding, rabbit; conditions: for maximum inhibition of binding of 125I-labeled hapten: GC-5 diluted such that 33% of the label was bound in the absence of competitors
Description: as §1, §2, §3, §4

[1] = in vivo; cited from earlier work
[2] = tested on: anti-chlorinated dibenzodioxin serum (antisera GC-5 and F-12); experiment: Double-antibody radioimmunoassay, both antisera (general cross reactivity, interference and sensitivity); format: binding, rabbit; conditions: for cross reactivity of the three dichlorodibenzo-p-dioxins: 5 ng level; for activity v concentration curve slope: both antisera
Description: as §1, §2, §3, §4

Structure (SMILES)	Cross Reactivity, Antiserum F-12: 100 × (inhibition of 125I binding by 4 pmole of test compound)/(inhibition by 4 pmole of 2,3,7,8-TCDD) (antiserum F-12)	Cross Reactivity, Antiserum GC-5: 100 × (inhibition of 125I binding by 4 pmole of test compound)/(inhibition by 4 pmole of 2,3,7,8-TCDD) (antiserum GC-5)	other results
c1ccc2c(c1)oc1ccccc12 [Unchlorinated Dibenzofuran]	< 1%	2.5%	
Clc1cc2c(c(Cl)c1Cl)Oc1cc(Cl)c(Cl)c(Cl)c1O2 [1,2,3,6,7,8-Cl6 Dibenzo-p-Dioxin]	9%	99%	toxicity relative to TCDD [1]: toxicities comparable to that of TCDD
Clc1ccc(Oc2ccc(Cl)c(Cl)c2)cc1Cl [3,4,3',4'-TCBPE]			Percentage Reactivity (inhibition of 125I binding relative to inhibition by 5 ng of 2,3,7,8-TCDD) (antiserum F-12; highest amount tested 200 ng): 0.1%
Clc1cc(Cl)c(-c2cc(Cl)c(Cl)cc2Cl)cc1Cl [2,4,5,2',4',5'-HCBP]			Percentage Reactivity (inhibition of 125I binding relative to inhibition by 5 ng of 2,3,7,8-TCDD) (antiserum F-12; highest amount tested 100 ng): 0%
Clc1ccc2oc3ccc(Cl)cc3c2c1 [2,8-Cl2 Dibenzofuran]		12%	
Clc1cc2c(c(Cl)c1Cl)Oc1c(cc(Cl)c(Cl)c1Cl)O2 [1,2,3,7,8,9-hexachlorodibenzo-p-dioxin]			effective competition in the assay (predicted) (antiserum F-12; if available for testing): effective competitor; toxicity relative to TCDD [1]: toxicities comparable to that of TCDD
Clc1cccc(Cl)c1-c1c(Cl)cccc1Cl [2,6,2',6'-TCBP]			Percentage Reactivity (inhibition of 125I binding relative to inhibition by 5 ng of 2,3,7,8-TCDD) (antiserum F-12; highest amount tested 200 ng): 0%
CC(=O)Oc1c(C)c(C)c2c(c1C)CCC(C)(CCCC(C)CCCC(C)CCCC(C)C)O2 (stereo not drawn) [α-Tocopherol Acetate]			Percentage Reactivity (inhibition of 125I binding relative to inhibition by 5 ng of 2,3,7,8-TCDD) (antiserum F-12; highest amount tested 200 ng): 0%
O=C1OC2(c3cc(Cl)c(O)cc3Oc3cc(O)c(Cl)cc32)c2ccccc21 [2,7-Dichlorofluorescein]			Percentage Reactivity (inhibition of 125I binding relative to inhibition by 5 ng of 2,3,7,8-TCDD) (antiserum F-12; highest amount tested 200 ng): 0%
Clc1cc(-c2cc(Cl)c(Cl)c(Cl)c2)cc(Cl)c1Cl [3,4,5,3',4',5'-HCBP]			Percentage Reactivity (inhibition of 125I binding relative to inhibition by 5 ng of 2,3,7,8-TCDD) (antiserum F-12; highest amount tested 100 ng): 0%
CCCCCCCC/C=C\CCCCCCCC(=O)O[C@H]1CC[C@@]2(C)C(=CC[C@H]3[C@@H]4CC[C@H]([C@H](C)CCCC(C)C)[C@@]4(C)CC[C@@H]32)C1 [Cholesterol Oleate]			Percentage Reactivity (inhibition of 125I binding relative to inhibition by 5 ng of 2,3,7,8-TCDD) (antiserum F-12; highest amount tested 100 μg): 0%
Clc1c(Cl)c(Cl)c2c(c1Cl)Oc1c(Cl)c(Cl)c(Cl)c(Cl)c1O2 [Octachloro Dibenzo-p-Dioxin]	8%	100%	
Clc1ccc(-c2ccc(Cl)c(Cl)c2)cc1Cl [3,4,3',4'-TCBP, 3,4,3'4'-tetrachlorobiphenyl]			Percentage Reactivity (inhibition of 125I binding relative to inhibition by 5 ng of 2,3,7,8-TCDD) (antiserum F-12; highest amount tested 5 ng): 6%
O=C(O)COc1cc(Cl)c(Cl)cc1Cl [2,4,5-T (Commercial), 2,4,5-trichlorophenoxyacetic acid]			Percentage Reactivity (inhibition of 125I binding relative to inhibition by 5 ng of 2,3,7,8-TCDD) (antiserum F-12; highest amount tested 10 μg): 37%
c1ccc2cc3ccccc3cc2c1 [Anthracene]			Percentage Reactivity (inhibition of 125I binding relative to inhibition by 5 ng of 2,3,7,8-TCDD) (antiserum F-12; highest amount tested 100 ng): 0%
Clc1ccc2c(c1)Oc1cc(Cl)c(Cl)cc1O2 [2,3,7-Cl3 Dibenzo-p-Dioxin]	77%	73%	
Clc1c(Cl)c(Cl)c2c(oc3c(Cl)c(Cl)c(Cl)c(Cl)c32)c1Cl [Octachloro Dibenzofuran]	8%	14%	

Structure (SMILES)	Cross Reactivity, Antiserum F-12: 100 × (inhibition of 125I binding by 4 pmole of test compound)/(inhibition by 4 pmole of 2,3,7,8-TCDD) (antiserum F-12)	Cross Reactivity, Antiserum GC-5: 100 × (inhibition of 125I binding by 4 pmole of test compound)/(inhibition by 4 pmole of 2,3,7,8-TCDD) (antiserum GC-5)	other results
Brc1cc2oc3cc(Br)c(Br)cc3c2cc1Br [2,3,7,8-Br4 Dibenzofuran]	46%		
CCCCC(CC)COC(=O)c1c(Cl)c(Cl)c(Cl)c(Cl)c1C(=O)OCC(CC)CCCC (stereo not drawn) [Tetrachloro DEHP]			Percentage Reactivity (inhibition of 125I binding relative to inhibition by 5 ng of 2,3,7,8-TCDD) (antiserum F-12; highest amount tested 200 ng): 0.1%
ClC(Cl)=C(c1ccc(Cl)cc1)c1ccc(Cl)cc1 [DDE]			Percentage Reactivity (inhibition of 125I binding relative to inhibition by 5 ng of 2,3,7,8-TCDD) (antiserum F-12; highest amount tested 400 ng): 0%
Oc1c(Cl)c(Cl)c(Cl)c(Cl)c1Cl [Pentachlorophenol]			Percentage Reactivity (inhibition of 125I binding relative to inhibition by 5 ng of 2,3,7,8-TCDD) (antiserum F-12; highest amount tested 10 μg): 0%
Clc1cc2c(cc1Cl)Oc1c(Cl)c(Cl)c(Cl)c(Cl)c1O2 [1,2,3,4,7,8-Cl6 Dibenzo-p-Dioxin]	9%	99%	
Clc1ccc2oc3cc(Cl)c(Cl)cc3c2c1 [2,3,8-Cl3 Dibenzofuran]		2%	
Clc1cc(Cl)cc(-c2cc(Cl)cc(Cl)c2)c1 [3,5,3',5'-TCBP]			Percentage Reactivity (inhibition of 125I binding relative to inhibition by 5 ng of 2,3,7,8-TCDD) (antiserum F-12; highest amount tested 100 ng): 0%
CCCCC(CC)COC(=O)c1ccccc1C(=O)OCC(CC)CCCC (stereo not drawn) [DEHP, di(2-ethylhexyl) phthalate]			Percentage Reactivity (inhibition of 125I binding relative to inhibition by 5 ng of 2,3,7,8-TCDD) (antiserum F-12; highest amount tested 100 μg): 0%
Clc1ccc2c(c1)Oc1cc(Cl)ccc1O2 [2,8-Cl2 Dibenzo-p-Dioxin]	17%	52%	cross reactivity of the three dichlorodibenzo-p-dioxins [2]: very similar in their cross reactivity; activity v concentration curve slope [2]: most shallow slope
c1ccc2c(c1)Oc1ccccc1O2 [Unchlorinated Dibenzo-p-Dioxin, Unchlorinated dibenzo-p-dioxin]	< 1%	4%	cross reactivity in words ([2]; either antiserum): very little cross relativity
Clc1cc(Cl)c2oc3cc(Cl)c(Cl)cc3c2c1 [2,3,6,8-Cl4 Dibenzofuran]	40%	6%	
Clc1cc2c(cc1Cl)Oc1c(Cl)c(Cl)cc(Cl)c1O2 [1,2,4,7,8-Cl5 Dibenzo-p-Dioxin]	36%	76%	
Clc1c(Cl)c(Cl)c2c(c1Cl)Oc1ccccc1O2 [1,2,3,4-Cl4 Dibenzo-p-Dioxin, 1,2,3,4-tetrachloro DBD]	< 1%	20%	maximum inhibition of binding of 125I-labeled hapten (antiserum GC-5): up to 18%
Clc1ccc2c(c1)Oc1ccc(Cl)cc1O2 [2,7-Cl2 Dibenzo-p-Dioxin]	20%	56%	cross reactivity of the three dichlorodibenzo-p-dioxins [2]: very similar in their cross reactivity
O=C1c2ccccc2-c2ccccc21 [9-Fluorenone]			Percentage Reactivity (inhibition of 125I binding relative to inhibition by 5 ng of 2,3,7,8-TCDD) (antiserum F-12; highest amount tested 100 ng): 0%
Clc1cc2c(cc1Cl)Oc1ccccc1O2 [2,3-Cl2 Dibenzo-p-Dioxin, 2,3-dichloro DBD]	16%	44%	binding by the antibodies in GC-5 (antiserum GC-5): only a portion bind 2,3-dichloro DBD; maximum inhibition of binding of 125I-labeled hapten (antiserum GC-5): 55%; cross reactivity of the three dichlorodibenzo-p-dioxins [2]: very similar in their cross reactivity; activity v concentration curve slope [2]: steepest sloop
